Measured values as given in US20200345010A1, “FUNGICIDAL OXADIAZOLES” (FMC Corporation, priority 2019, published 2020).
Marks after values point to notes of the source that are not given here.

Columns and labels:
[1] = tested on: Puccinia recondita f. sp. tritici; test: Test C: wheat leaf rust control on wheat seedlings; format: in vivo; conditions: wheat seedlings sprayed the day before inoculation, 100 = 100% disease control, 0 = none
Excerpt: (§1) General protocol for preparing test suspensions for Tests A-C: the test compounds were first dissolved in acetone in an amount equal to 3% of the final volume and then suspended at the desired concentration (in ppm) in acetone and purified water (50/50 mix by volume) containing 250 ppm of the surfactant PEG400 (polyhydric alcohol esters). The resulting test suspensions were then used in Tests A-C.
(§2) The test solution was sprayed to the point of run-off on wheat seedlings. The following day the seedlings were inoculated with a spore suspension of Puccinia recondita f. sp. tritici (the causal agent of wheat leaf rust) and incubated in a saturated atmosphere at 20° C. for 24 h, and then moved to a growth chamber at 20° C. for 7 days, after which time disease ratings were made.
(§3) A rating of 100 indicates 100% disease control and a rating of 0 indicates no disease control (relative to the controls). A dash (-) indicates the compound was not tested.

[2] = tested on: Phakopsora pachyrhizi; test: Test A: Asian soybean rust control on soybean seedlings; format: in vivo; conditions: 10 ppm test suspension; soybean seedlings sprayed the day before inoculation; 100 = 100% disease control, 0 = none
Excerpt: as §1
as §2, with “soybean” for “wheat”, “Phakopsora pachyrhizi” for “Puccinia recondita f. sp. tritici”, “Asian soybean” for “wheat leaf”, “22°” for “20°”, “8” for “7”, “time visual” for “time”
as §3

[3] = tested on: Zymoseptoria tritici; test: Test B: wheat leaf blotch control on wheat seedlings; format: in vivo; conditions: 250 ppm test suspension (asterisk); wheat seedlings sprayed the day before inoculation; 100 = 100% disease control, 0 = none
Excerpt: as §1
The test solution was sprayed to the point of run-off on wheat seedlings. The following day the seedlings were inoculated with a spore suspension of Zymoseptoria tritici (the causal agent of wheat leaf blotch) and incubated in a saturated atmosphere at 24° C. for 48 h, and then moved to a growth chamber at 20° C. for 17 days, after which time disease ratings were made.
as §3

Structure (SMILES)	Test C disease control rating ([1]; 10 ppm test suspension)	Test A disease control rating [2]	Test B disease control rating [3]	melting point	Test C disease control rating ([1]; 50 ppm test suspension)
O=S1(=NCc2ccc(-c3noc(C(F)(F)F)n3)cc2)c2ccccc2-c2ccccc21 [Compound 41]	86%	97%	86* %	120 to 124 °C	–
O=S1(=Nc2ccc(-c3noc(C(F)(F)F)n3)cc2)c2ccccc2-c2ccccc21 [Compound 38]	0%	0%	1* %	230 to 234 °C	–
O=S1(=NCc2ccc(-c3noc(C(F)(F)F)n3)cc2)CCCC1 [Compound 51]	–	100%	52* %	58 to 63 °C	100** %
